Tests used:
Assay in all cases: Pre-emergence field weed control in winter wheat (visual rating)
Assay type in all cases: in vivo
[1] = test system: GERRT = Geranium rotundifolium L. (round-leaved Cranesbill); settings: benfluralin 1,000 g ai/ha
Method: (§1) Soft winter wheat was planted using normal cultural practices in France and Germany in October under normal environmental conditions that allowed rapid germination and growth of wheat and weeds. Fields were prepared as per normal cultural practices, by applying appropriate fertilizers for normal winter wheat growth and yield, working and leveling the ground, and planting at normal time of year using 150 to 170 kg/ha seed with mechanical planters to maximize emergence, growth and yield. Weed infestations varied from 280 to 500 plants per square meter (plants/m^2).
(§2) Treatments consisted of benfluralin applied alone, as well as diflufenican, flufenacet and prosulfocarb applied alone, and in combination with benfluralin, to measure herbicidal weed control and any synergistic interactions. These treatments were applied using backpack sprayers applying spray volumes of 200-250 liters per hectare (L/ha) at a spray pressure of 230 KPA to plots 2.5 meters (m)×8 m, randomized 4 times per treatment. All treatments were applied pre-emergence to the soil, after planting the winter wheat. The pre-emergence treatments were activated with normal rainfall. Treatments were rated on a 0-100% scale, with 0%=no control and 100%=complete control.
(§3) Colby's equation was used to determine the herbicidal effects expected from the mixtures (Colby, S. R. Weeds 1967, 15, 20-22. Calculation of the synergistic and antagonistic response of herbicide combinations).
(§4) The following equation was used to calculate the expected activity of mixtures containing two active ingredients, A and B: Expected=A+B−(A×B/100)
(§5) A=observed efficacy of active ingredient A at the same concentration as used in the mixture.
(§6) B=observed efficacy of active ingredient B at the same concentration as used in the mixture.
(§7) The herbicide tankmix combinations tested, application rates and ratios employed, plant species tested, and results are given in Tables 1 to 6.

[2] = test system: VERHE = Veronica hederifolia L. (ivyleaf speedwell); settings: Test 2, 150 days after application, benfluralin 1,200 g ai/ha, flufenacet 240 g ai/ha
Method: as §1, §2, §3, §4, §5, §6, §7

[3] = test system: ALOMY = Alopecurus agrestis L. (blackgrass)
Method: as §1, §2, §3, §4, §5, §6, §7

[4] = test system: GALAP = Galium aparine L. (cleavers); settings: benfluralin 1,000 g ai/ha, prosulfocarb 3,000 g ai/ha
Method: as §1, §2, §3, §4, §5, §6, §7

[5] = Test 1, 27 days after application, diflufenican 100 g ai/ha
[6] = Test 1, 27 days after application, prosulfocarb 3,000 g ai/ha
[7] = Test 1, 174 days after application, prosulfocarb 3,000 g ai/ha
[8] = Test 1, 236 days after application, diflufenican 100 g ai/ha
[9] = Test 1, 236 days after application, prosulfocarb 3,000 g ai/ha
[10] = Test 1, 13 days after application, benfluralin 1,200 g ai/ha, flufenacet 240 g ai/ha
[11] = Test 1, 27 days after application, benfluralin 1,000 g ai/ha, diflufenican 100 g ai/ha
[12] = Test 1, 27 days after application, benfluralin 1,000 g ai/ha, prosulfocarb 3,000 g ai/ha
[13] = Test 1, 174 days after application, benfluralin 1,000 g ai/ha, diflufenican 100 g ai/ha
[14] = Test 1, 174 days after application, benfluralin 1,000 g ai/ha, prosulfocarb 3,000 g ai/ha
[15] = Test 1, 236 days after application, benfluralin 1,000 g ai/ha, diflufenican 100 g ai/ha
[16] = Test 1, 236 days after application, benfluralin 1,000 g ai/ha, prosulfocarb 3,000 g ai/ha
[17] = Test 1, 236 days after application, benfluralin 1,200 g ai/ha, flufenacet 240 g ai/ha
[18] = Test 2, 169 days after application, benfluralin 1,000 g ai/ha, diflufenican 100 g ai/ha
[19] = Test 2, 189 days after application, benfluralin 1,000 g ai/ha, prosulfocarb 3,000 g ai/ha
[20] = Test 2, 189 days after application, benfluralin 1,200 g ai/ha, flufenacet 240 g ai/ha
[21] = Test 2, 199 days after application, benfluralin 1,000 g ai/ha, diflufenican 100 g ai/ha
[22] = Test 1, 27 days after application
[23] = Test 1, 174 days after application
[24] = Test 1, 236 days after application

## CCCCN(CC)c1c([N+](=O)[O-])cc(C(F)(F)F)cc1[N+](=O)[O-] [Benfluralin, N-butyl-N-ethyl-2,6-dinitro-4-(trifluoromethyl)benzenamine]
[1]; [5]
  % Visual Weed Control GERRT Obs: 6%
[1]; [6]
  % Visual Weed Control GERRT Obs: 6%
[1]; [7]
  % Visual Weed Control GERRT Obs: 7%
[1]; [8]
  % Visual Weed Control GERRT Obs: 7%
[1]; [9]
  % Visual Weed Control GERRT Obs: 7%
[2]
  % Visual Weed Control VERHE Obs: 43%
[3]; [10]
  % Visual Weed Control ALOMY Obs: 7%
[3]; [11]
  % Visual Weed Control ALOMY Obs: 17%
[3]; [12]
  % Visual Weed Control ALOMY Obs: 17%
[3]; [13]
  % Visual Weed Control ALOMY Obs: 20%
[3]; [14]
  % Visual Weed Control ALOMY Obs: 20%
[3]; [15]
  % Visual Weed Control ALOMY Obs: 23%
[3]; [16]
  % Visual Weed Control ALOMY Obs: 23%
[3]; [17]
  % Visual Weed Control ALOMY Obs: 29%
[3]; [18]
  % Visual Weed Control ALOMY Obs: 0%
[3]; [19]
  % Visual Weed Control ALOMY Obs: 0%
[3]; [20]
  % Visual Weed Control ALOMY Obs: 0%
[3]; [21]
  % Visual Weed Control ALOMY Obs: 0%
[4]; [22]
  % Visual Weed Control GALAP Obs: 7%
[4]; [23]
  % Visual Weed Control GALAP Obs: 8%
[4]; [24]
  % Visual Weed Control GALAP Obs: 7%

## O=C(Nc1ccc(F)cc1F)c1cccnc1Oc1cccc(C(F)(F)F)c1 [Diflufenican, N-(2,4-difluorophenyl)-2-[3-(trifluoromethyl)phenoxy]-3-pyridinecarboxamide]
[1]; [5]
  % Visual Weed Control GERRT Obs: 72%
[1]; [8]
  % Visual Weed Control GERRT Obs: 63%
[3]; [11]
  % Visual Weed Control ALOMY Obs: 19%
[3]; [13]
  % Visual Weed Control ALOMY Obs: 22%
[3]; [15]
  % Visual Weed Control ALOMY Obs: 23%
[3]; [18]
  % Visual Weed Control ALOMY Obs: 0%
[3]; [21]
  % Visual Weed Control ALOMY Obs: 7%

## CC(C)N(C(=O)COc1nnc(C(F)(F)F)s1)c1ccc(F)cc1 [Flufenacet, N-(4-fluorophenyl)-N-(1-methylethyl)-2-[[5-(trifluoromethyl)-1,3,4-thiadiazol-2-yl]oxy]acetamide]
[2]
  % Visual Weed Control VERHE Obs: 0%
[3]; [10]
  % Visual Weed Control ALOMY Obs: 26%
[3]; [17]
  % Visual Weed Control ALOMY Obs: 80%
[3]; [20]
  % Visual Weed Control ALOMY Obs: 82%

## CCCN(CCC)C(=O)SCc1ccccc1 [Prosulfocarb, S-(phenylmethyl) dipropylcarbamothioate]
[1]; [6]
  % Visual Weed Control GERRT Obs: 21%
[1]; [7]
  % Visual Weed Control GERRT Obs: 25%
[1]; [9]
  % Visual Weed Control GERRT Obs: 27%
[3]; [12]
  % Visual Weed Control ALOMY Obs: 30%
[3]; [14]
  % Visual Weed Control ALOMY Obs: 33%
[3]; [16]
  % Visual Weed Control ALOMY Obs: 35%
[3]; [19]
  % Visual Weed Control ALOMY Obs: 30%
[4]; [22]
  % Visual Weed Control GALAP Obs: 37%
[4]; [23]
  % Visual Weed Control GALAP Obs: 39%
[4]; [24]
  % Visual Weed Control GALAP Obs: 42%
